Source: article PMC13288968 (ACS chemical neuroscience, 2026)
“And” between values parts separate entries of the source, which are not always exact repeats. Equal entries are not always repeated.

T1: ΔFOSB/JUND bZIP redox switch (ΔFOSB Cys172/JUND Cys285) (Mus musculus, UniProt P13346)
T1 sequence (P13346 153-219 isoform P13346-2): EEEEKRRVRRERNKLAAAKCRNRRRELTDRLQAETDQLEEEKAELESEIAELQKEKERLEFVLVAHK
T1 sequence (P15066 260-326 partner limits assumed): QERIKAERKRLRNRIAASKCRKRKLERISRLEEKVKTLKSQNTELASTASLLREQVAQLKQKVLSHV

T2: ΔFOSB bound to genomic DNA in hippocampus of APP mice (Mus musculus, UniProt P13346)
T2 sequence (P13346 1-237 isoform P13346-2): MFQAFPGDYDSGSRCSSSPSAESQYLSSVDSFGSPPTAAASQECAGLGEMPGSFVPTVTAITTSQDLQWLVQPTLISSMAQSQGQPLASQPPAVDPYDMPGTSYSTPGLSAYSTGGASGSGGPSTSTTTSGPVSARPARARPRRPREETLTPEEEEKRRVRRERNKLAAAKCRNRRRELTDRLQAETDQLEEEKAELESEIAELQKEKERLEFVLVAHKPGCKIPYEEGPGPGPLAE

T3: ΔFOSB homomer (full-length) (mouse, UniProt P13346-2 2-237)
T3 sequence: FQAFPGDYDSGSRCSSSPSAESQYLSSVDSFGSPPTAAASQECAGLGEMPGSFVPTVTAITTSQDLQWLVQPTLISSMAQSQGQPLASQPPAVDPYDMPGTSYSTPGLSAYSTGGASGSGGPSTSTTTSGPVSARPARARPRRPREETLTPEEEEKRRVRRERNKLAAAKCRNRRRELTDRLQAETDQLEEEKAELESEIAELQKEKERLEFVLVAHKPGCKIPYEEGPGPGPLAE

T4: ΔFOSB (full-length);JUND (full-length) (mouse;mouse, UniProt P13346-2;P15066 2-237;2-341, |)
T4 sequence 1: T3 sequence
T4 sequence 2: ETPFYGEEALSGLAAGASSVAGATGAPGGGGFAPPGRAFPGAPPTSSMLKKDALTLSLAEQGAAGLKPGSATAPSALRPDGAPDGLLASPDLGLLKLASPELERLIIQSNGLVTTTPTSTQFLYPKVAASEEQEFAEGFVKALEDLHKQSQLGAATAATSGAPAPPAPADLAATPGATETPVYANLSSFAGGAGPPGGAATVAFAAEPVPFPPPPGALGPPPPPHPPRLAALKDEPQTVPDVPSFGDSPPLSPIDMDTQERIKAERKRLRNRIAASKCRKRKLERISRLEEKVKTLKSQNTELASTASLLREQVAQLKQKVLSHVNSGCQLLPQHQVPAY

B1: TMR-cdk5 (cdk5 oligo) (dsDNA)
DNA 1: CGTCGGTGACTCAAAACAC
DNA 2: GTGTTTTGAGTCACCGACG

Columns and labels:
[1] = target: T1, ΔFOSB/JUND bZIP redox switch (ΔFOSB Cys172/JUND Cys285); assay: Redox switch closure of ΔFOSB/JUND bZIP assessed by non-reducing SDS-PAGE; assay type: biochemical
[2] = target: T2, ΔFOSB bound to genomic DNA in hippocampus of APP mice; conditions: three days into the dorsal hippocampus of APP mice; cited from earlier work
[3] = target: T3, ΔFOSB homomer (full-length); assay: fluorescence polarization
[4] = target: T4, ΔFOSB (full-length);JUND (full-length); assay: fluorescence polarization

Row | Molecule | effect on closure of the redox switch under oxidation ([1]; 500 μM compound, 100 μM diamide, non-reducing SDS-PAGE) | promotion of oxidation / redox switch closure by compound alone ([1]; 0.5 mM compound, no diamide, SDS-PAGE) | reduction in number of ΔFOSB-bound AP-1 sites (CUT&RUN) [2] | binding result [3] | binding result [4]
1 | NC1=NN(c2ccc(Oc3ccccc3)c(S(=O)(=O)O)c2)C(=O)C1 [JPC0661] | None of the three compounds (YL0441, JPC0661, and QB0365) prevented closure of the redox switch | did not oxidize the protein to induce closure of the redox switch | 60% and ~ 60% |  | 
2 | B1 |  |  |  | binds | binds
